From publication PMC10012260 (ACS Infectious Diseases, 2023)
“And” between values parts separate entries of the source, which are not always exact repeats. Equal values may be shown once. Read-outs that look alike come from different tables or passages of the source.

Key:
NDV La Sota [1] = test: microbe, parasite or virus in culture; format: cell-based, Newcastle disease virus; settings: avian paramyxovirus 1, Vero, 48 h, read-out: Inhibition of viral release (IC50, μM)
NDV La Sota [2] = test: microbe, parasite or virus in culture; format: cell-based, Newcastle disease virus; settings: for IC50: avian paramyxovirus 1, Vero, 48 h, read-out: plaque reduction assay (IC50, μM)
NDV La Sota [3] = test: microbe, parasite or virus in culture; format: cell-based, Newcastle disease virus; settings: avian paramyxovirus 1, Vero, 24 h, read-out: viral yield reduction assay 24 h (IC50, μM)
in vitro = settings: African green monkey
[4] = molecular target: NDV-HN of three NDV strains (two NDV La Sota and the velogenic strain APMV-1/chicken/Egypt/13VIR-5009-2/2013) (Newcastle disease virus, UniProt P35743); test: biochemical
Sequence of NDV-HN of three NDV strains (two NDV La Sota and the velogenic strain APMV-1/chicken/Egypt/13VIR-5009-2/2013) (P35743 whole entry, looked up): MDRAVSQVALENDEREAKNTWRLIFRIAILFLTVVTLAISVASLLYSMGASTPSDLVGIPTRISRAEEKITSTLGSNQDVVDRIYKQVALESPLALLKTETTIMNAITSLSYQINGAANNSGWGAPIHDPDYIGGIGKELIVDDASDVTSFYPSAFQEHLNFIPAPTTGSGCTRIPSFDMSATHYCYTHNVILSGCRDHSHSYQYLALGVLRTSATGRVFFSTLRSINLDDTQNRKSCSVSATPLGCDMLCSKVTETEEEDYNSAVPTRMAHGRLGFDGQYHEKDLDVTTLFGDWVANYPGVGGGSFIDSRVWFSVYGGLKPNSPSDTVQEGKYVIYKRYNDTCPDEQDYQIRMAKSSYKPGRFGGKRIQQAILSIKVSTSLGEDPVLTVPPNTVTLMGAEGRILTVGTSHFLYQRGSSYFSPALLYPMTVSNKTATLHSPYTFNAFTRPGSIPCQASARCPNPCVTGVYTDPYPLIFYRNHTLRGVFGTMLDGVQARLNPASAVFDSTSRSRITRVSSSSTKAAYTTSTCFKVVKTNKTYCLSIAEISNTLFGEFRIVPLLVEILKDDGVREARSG

NDV La Sota [5] = test: microbe, parasite or virus in culture; format: cell-based, Newcastle disease virus; settings: avian paramyxovirus 1, Vero, read-out: Inhibition of viral binding (IC50, μM)
hPIV3-HN = settings: read-out: IC50 hPIV3-HN; cited from earlier work
La Sota Clone 30 NDV-HN = La Sota Clone 30 NDV-HN (Newcastle disease virus, UniProt P35743); format: biochemical
Sequence of La Sota Clone 30 NDV-HN (P35743 whole entry, looked up): as above

Structure (SMILES) | IC50 (NDV La Sota [1]) | selectivity index (CC50/IC50) (NDV La Sota [2]) | IC50 (NDV La Sota [2]) | IC50 (NDV La Sota [3]) | CC50 (in vitro) | IC50 [4] | IC50 (NDV La Sota [5]) | IC50 (hPIV3-HN) | increase in potency versus methylsulfonamido derivative 14 (La Sota Clone 30 NDV-HN) | increase in inhibitory activity versus p-toluenesulfonamido 12 (La Sota Clone 30 NDV-HN) | times more active than FANA 5 (La Sota Clone 30 NDV-HN)
CC(=O)N[C@H]1[C@H]([C@H](O)[C@H](O)CO)OC(C(=O)O)=C[C@@H]1O [Compound 1, N-acetyl-2,3-dehydro-2-deoxyneuraminic acid, reference compound] | 15 ± 8 µM | >96 | 26 ± 13 µM | 1.6 ± 0.6 µM | > 2500 µM | 6.2 to 14 µM | > 100 µM |  |  |  | 
CC(=O)N[C@H]1[C@H]([C@H](O)[C@H](O)CO)OC(C(=O)O)=C[C@@H]1N=C(N)N [Compound 2, Zanamivir, reference compound] | 29 ± 10 µM | >83 | 30 ± 7 µM |  | > 2500 µM | 23 to 70 µM | > 100 µM |  |  |  | 
CC(C)C(=O)N[C@H]1[C@H]([C@H](O)[C@H](O)CO)OC(C(=O)O)=C[C@@H]1N=[N+]=[N-] [Compound 4] |  |  |  |  |  |  |  | 20 µM and 21.5 µM |  |  | 
O=C(O)C1=C[C@H](O)[C@@H](NC(=O)C(F)(F)F)[C@H]([C@H](O)[C@H](O)CO)O1 [Compound 5, N-trifluoroacetyl-2,3-dehydro-2-deoxyneuraminic acid, reference compound] | 7.7 ± 2.9 µM | >714 | 3.5 ± 0.9 µM | 0.37 ± 0.08 µM | > 2500 µM | 6.2 to 14 µM | > 100 µM |  |  |  | 
[N-]=[N+]=N[C@H]1C=C(C(=O)O)O[C@@H]([C@H](O)[C@H](O)CO)[C@@H]1NC(=O)C(F)(F)F [Compound 9] | 0.47 µM |  | 0.17 ± 0.06 µM | 0.04 ± 0.01 µM | > 2500 µM | ~0.03 µM | 23 µM |  |  |  | 
[N-]=[N+]=N[C@H]1C=C(C(=O)O)O[C@@H]([C@H](O)[C@H](O)CO)[C@@H]1NC(=O)C(F)(F)C(F)(F)C(F)(F)F [Compound 10] | 0.09 µM | >41,667 | 0.06 ± 0.02 µM | 0.04 ± 0.01 µM | > 2500 µM | ~0.03 µM | 4 µM |  |  |  | 
O=C(O)C1=C[C@H](NS(=O)(=O)c2ccccc2)[C@@H](NC(=O)C(F)(F)F)[C@H]([C@H](O)[C@H](O)CO)O1 [Compound 19, 2,6-Anhydro-4-(phenylsulfonamido)-3,4,5-trideoxy-5-(2,2,2-trifluoroacetamido)-D-glycero-D-galacto-non-2-enoic Acid] |  |  |  |  |  |  |  |  | 10 fold |  | 
Cc1ccc(C(=O)N[C@H]2C=C(C(=O)O)O[C@@H]([C@H](O)[C@H](O)CO)[C@@H]2NC(=O)C(F)(F)F)cc1 [Compound 23, 2,6-Anhydro-4-(4-methylbenzamido)-3,4,5-trideoxy-5-(2,2,2-trifluoroacetamido)-D-glycero-D-galacto-non-2-enoic Acid] | 0.13 µM |  | 0.79 ± 0.57 µM | 0.05 ± 0.02 µM | > 2500 µM | ≤ 0.2 µM | 24 µM |  |  | 3 fold | 40 times
O=C(O)C1=C[C@H](NC(=O)C(F)(F)F)[C@@H](NC(=O)C(F)(F)F)[C@H]([C@H](O)[C@H](O)CO)O1 [Compound 24, 2,6-Anhydro-3,4,5-trideoxy-4,5-di-(2,2,2-trifluoroacetamido)-D-glycero-D-galacto-non-2-enoic Acid] | 0.17 µM |  | 0.08 ± 0.01 µM | 0.03 ± 0.01 µM | > 2500 µM | ≤ 0.2 µM | 15 µM |  |  |  | 
